Paper PMC7321149 (Molecules, 2020)
Like-named read-outs stand apart in the source and are kept apart here.

What was measured:
[1] = tested on: L. amazonensis, L. braziliensis, and L. donovani; assay: Leishmania multi-species high content assay, result stated across the species panel; assay type: cell-based; settings: for pan-leishmanial activity (efficacy): against all three species; for normalized activity against two species: two of the three species; for Emax: read-out: maximum efficacy
Procedure: (§1) THP-1 cells were plated onto 384-well assay plates (7000 cells/well, 25 μL) in RPMI complete media containing 50 ng/mL phorbol 12-myristate 13-acetate (PMA) and incubated at 37 °C/5% CO2 for 48 h. Cells were then infected with stationary-phase promastigotes at a multiplicity of infection (MOI) of 50 by adding 25 μL RPMI (without PMA reagent), containing 1.4 × 10^7 parasites/mL. After 24 h of incubation at 37 °C (34 °C for cutaneous species), negative control-vehicle (0.5% DMSO), the positive control (10 μM amphotericin B), and compounds were added to the plate at a volume of 10 μL/well, bringing the total volume to 60 μL/well. For the primary screenings, compounds from the LOPAC library were tested at a concentration of 50 µM. […] Assay plates were incubated at 37 °C or 34 °C/5% CO2. After 96 h of compound exposure, assay plates were fixed with paraformaldehyde (PFA) by adding 30 μL of 12% PFA in PBS, pH 7.4, followed by incubation for 15 min at room temperature. Plates were then washed three times with 50 μL of PBS, pH 7.4, and stained with 10 μL/well of 5 μM Draq5 in PBS, pH 7.4, for at least two hours before imaging.
(§2) Plates were imaged in Operetta High Content Imaging System (Perkin Elmer), version 3.1, at a 20× magnification and filters optimized for far-red fluorescence (fluorescence filter: […]). A total of four images were acquired per well, which corresponded to 600–800 cells analyzed per condition. Quantitative readouts of the infection (total THP-1 cell number, total number of infected THP-1 cells, and number of parasites (spots) per infected cell) were determined by custom analysis building blocks in Columbus image analysis software (Perkin Elmer). Briefly, host nuclei and cells were segmented based on DNA staining, followed by the detection of individual parasites also based on DNA staining. Infected cells were determined as cells with one or more spots in the cytoplasmatic area. Details of the analysis workflow are described in the (Supplementary Information (Figure S4 and Table S1).
(§3) HCS data were analyzed as previously described^29. Briefly, the ratio of infected cells to the total number of cells was determined as the infection ratio (IR). The raw data for IR values was normalized to the negative (DMSO-treated infected cells) and positive (non-infected cells) controls to determine the normalized antiparasitic activity, expressed as a percentage in comparison to control wells. The cellular ratio was determined as the proportion between the host cell number in compound-treated wells and the mean cell number in infected control wells. Plates were submitted to quality control analysis using the Z’-factor^53 and only plates with Z’-factor > 0.5 were considered for further analysis. Groups of different samples were analyzed using the ANOVA test followed by Tukey’s multiple comparison test. Studies of correlation were performed using Pearson or Spearman tests. […] Dose–response data were processed with the Graphpad Prism software, version 6, using the sigmoidal dose–response (variable slope) nonlinear curve fitting function.

L. donovani [2] = assay: Leishmania high content assay, intracellular amastigotes in PMA-differentiated THP-1 macrophages; assay type: cell-based, Leishmania donovani (MHOM/IN/1980/DD8)
Procedure: as §1, §2, §3

L. braziliensis = assay: as above; assay type: cell-based, Leishmania braziliensis (MHOM/BR/1975/M2903); settings: for EC50: Leishmania braziliensis
Procedure: as §1, §2, §3

L. amazonensis = assay: as above; assay type: cell-based, Leishmania amazonensis (MHOM/BR/1977/LTB0016); settings: for EC50: Leishmania amazonensis
Procedure: as §1, §2, §3

Leishmania = tested on: Leishmania; design: method as in PMID 27215734; settings: cited from earlier work
visceral leishmaniasis = tested on: visceral leishmaniasis; design: method as in earlier work; settings: phase II clinical trial; cited from earlier work
L. donovani [3] = tested on: L. donovani; design: method as in PMID 21739037; settings: in vitro; cited from earlier work
[4] = tested on: amastigote forms of L. aethiopica; design: method as in PMID 11801222; settings: cited from earlier work
[5] = THP-1, read-out: pEC50 M L. d (converted)
[6] = THP-1, confirmatory dose-response, mean of two independent experiments, pEC50 = -log EC50 (M), read-out: pEC50 M L. b (converted)
[7] = THP-1, confirmatory dose-response, mean of two independent experiments, pEC50 = -log EC50 (M), read-out: pEC50 M L. a (converted)
[8] = THP-1, confirmatory dose-response, mean of two independent experiments, pEC50 = -log EC50 (M), read-out: pEC50 M L. d (converted)
[9] = confirmatory dose-response, mean of two independent experiments, pEC50 = -log EC50 (M)
[10] = dose-response of reference drugs, span over the three species
[11] = THP-1, library screening plates, mean ± standard deviation from eight assay plates, read-out: EC50 Amphotericin B
[12] = reference compound concentration-effect curves (Figure 2B), 96 h exposure, infected THP-1, read-out: EC50

NC(=O)c1cc(N2CC2)c([N+](=O)[O-])cc1[N+](=O)[O-] [CB 1954]
pan-leishmanial activity (efficacy) [1]: greater than 70%
EC50 (L. donovani [2]; THP-1): 3.7e-06 M
EC50 (L. donovani [2]; [5]): 3.72e-06 M
EC50 (L. braziliensis; THP-1): 1.6e-06 M
EC50 (L. braziliensis; THP-1, read-out: pEC50 M L. b (converted)): 2.19e-06 M
EC50 (L. amazonensis; THP-1): 3.1e-05 M
EC50 (L. amazonensis; THP-1, read-out: pEC50 M L. a (converted)): 3.09e-05 M

COc1ccccc1OCCNCC(O)COc1cccc2[nH]c3ccccc3c12 (centres unmarked) [Carvedilol]
EC50 (L. braziliensis; THP-1, confirmatory dose-response screen, values in text, read-out: EC50): 1.62e-05 M
EC50 (L. braziliensis; [6]): 1.62e-05 M
EC50 (L. amazonensis; [7]): 3.55e-05 M

CCc1cccc(N(C)C(N)=Nc2cccc3ccccc23)c1 [Cerestat]
EC50 (L. amazonensis; [7]): 2.88e-05 M

CN(C)CCCN1c2ccccc2CCc2ccc(Cl)cc21 [Clomipramine]
pan-leishmanial activity (efficacy) [1]: greater than 70%

CN1CCN(C2Cc3ccccc3Sc3ccc(Cl)cc32)CC1 (centres unmarked) [Clorotepine]
EC50 (L. donovani [2]; [8]): 4.37e-05 M
EC50 (L. braziliensis; [6]): 2.88e-05 M
EC50 (L. amazonensis; [7]): 4.57e-05 M

C[C@]1(COc2ccc(N3CCC(Oc4ccc(OC(F)(F)F)cc4)CC3)cc2)Cn2cc([N+](=O)[O-])nc2O1 [Delamanid]
efficacy against Leishmania (Leishmania): effective

CNCCCN1c2ccccc2CCc2ccccc21 [Desipramine]
EC50 (L. braziliensis; [6]): 3.24e-05 M
EC50 (L. amazonensis; [7]): 2.75e-05 M

CN(C)CC/C=C1/c2ccccc2Sc2cc(Cl)ccc21.Cl [EU-0100170]
normalized activity against two species [1]: > 90%

CCN(CC)C(C)CN1c2ccccc2Sc2ccccc21 (centres unmarked) [Ethopropazine]
EC50 (L. donovani [2]; [8]): 3.16e-05 M
EC50 (L. braziliensis; [6]): 3.72e-05 M
EC50 (L. amazonensis; [7]): 4.57e-05 M

OCCN1CCN(CCC=C2c3ccccc3Sc3ccc(C(F)(F)F)cc32)CC1 [Flupenthixol]
EC50 (L. donovani [2]; [8]): 3.47e-05 M

N=C(CC(=O)O)C(=O)O [Iminoaspartate]
pEC50 M L. b (L. braziliensis; [9]): 4.52
pEC50 M L. a (L. amazonensis; [9]): 4.42

CNC1CC(c2ccc(Cl)c(Cl)c2)c2ccccc21 (centres unmarked) [Indatraline]
EC50 (L. donovani [2]; THP-1): 1.81e-05 M
EC50 (L. donovani [2]; [5]): 1.82e-05 M

Cl.O=S(=O)(c1cccc2c(Cl)cccc12)N1CCCNCC1 [ML-9]
pan-leishmanial activity (efficacy) [1]: greater than 70%

CNCCCC12CCC(c3ccccc31)c1ccccc12 [Maprotiline]
pan-leishmanial activity (efficacy) [1]: greater than 70%

CN1C[C@H](CNC(=O)OCc2ccccc2)C[C@@H]2c3cccc4c3c(cn4C)C[C@H]21 [Metergoline]
EC50 (L. donovani [2]; [8]): 3.24e-05 M

CNCCC=C1c2ccccc2CCc2ccccc21 [Nortriptyline]
EC50 (L. braziliensis; [6]): 3.63e-05 M
EC50 (L. amazonensis; [7]): 2.95e-05 M

Fc1ccc([C@@H]2CCNC[C@H]2COc2ccc3c(c2)OCO3)cc1 [Paroxetine]
EC50 (L. donovani [2]; [8]): 3.16e-05 M

CCCCCCCCCCCCCCCCCCOP(=O)([O-])OC1CC[N+](C)(C)CC1 [Perifosine]
EC50 (L. donovani [2]; [8]): 2.75e-05 M

OCCN1CCN(CCCN2c3ccccc3Sc3ccc(Cl)cc32)CC1 [Perphenazine]
EC50 (L. donovani [2]; [8]): 2.75e-05 M

CN(C)CCCN1c2ccccc2Sc2ccccc21 [Promazine]
EC50 (L. braziliensis; [6]): 4.57e-05 M

CC(CN1c2ccccc2Sc2ccccc21)N(C)C (centres unmarked) [Promethazine]
EC50 (L. braziliensis; [6]): 3.98e-05 M
EC50 (L. amazonensis; [7]): 3.98e-05 M

CCC(=O)c1ccc2c(c1)N(CCCN(C)C)c1ccccc1S2 [Propionylpromazine]
EC50 (L. braziliensis; [6]): 3.09e-05 M
EC50 (L. amazonensis; [7]): 3.47e-05 M

CNCCCC1c2ccccc2C=Cc2ccccc21 [Protriptyline]
pan-leishmanial activity (efficacy) [1]: greater than 70%
EC50 (L. donovani [2]; [8]): 2.95e-05 M
EC50 (L. braziliensis; [6]): 3.72e-05 M
EC50 (L. amazonensis; [7]): 3.89e-05 M

c1cc(CN2CCCCC2)cc(OCCCNc2nc3ccccc3s2)c1 [SKF 95282]
EC50 (L. donovani [2]; [8]): 4.9e-05 M
EC50 (L. braziliensis; [6]): 2.63e-05 M
EC50 (L. amazonensis; [7]): 4.27e-05 M

CN1CCN(CCCN2c3ccccc3Sc3ccc(C(F)(F)F)cc32)CC1 [Trifluoperazine]
EC50 (L. donovani [2]; [8]): 3.8e-05 M

CN(C)CCCN1c2ccccc2Sc2ccc(C(F)(F)F)cc21 [Triflupromazine]
EC50 (L. donovani [2]; [8]): 2.82e-05 M

CC(CN(C)C)CN1c2ccccc2CCc2ccccc21 (centres unmarked) [Trimipramine]
EC50 (L. donovani [2]; [8]): 4.07e-05 M
EC50 (L. braziliensis; [6]): 2.82e-05 M
EC50 (L. amazonensis; [7]): 3.98e-05 M

CC[C@]1(O)C[C@@H]2CN(CCc3c([nH]c4ccccc34)[C@@](C(=O)OC)(c3cc4c(cc3OC)N(C)[C@H]3[C@@](O)(C(=O)OC)[C@H](OC(C)=O)[C@]5(CC)C=CCN6CC[C@]43[C@@H]65)C2)C1 [Vinblastine]
EC50 (L. braziliensis; [6]): 3.47e-05 M
EC50 (L. amazonensis; [7]): 2.82e-05 M

C[C@@H]1[C@H](O)[C@@H](C)/C=C/C=C/C=C/C=C/C=C/C=C/C=C/[C@H](O[C@@H]2O[C@H](C)[C@@H](O)[C@H](N)[C@@H]2O)C[C@@H]2O[C@](O)(C[C@@H](O)C[C@@H](O)[C@H](O)CC[C@@H](O)C[C@@H](O)CC(=O)O[C@H]1C)C[C@H](O)[C@H]2C(=O)O [amphotericin B]
EC50 [1, 10]: 0.7 to 2 µM
Emax [1, 10]: ~100%
EC50 (L. donovani [2]; [11]): 8.2e-07 ± 7e-08 M
EC50 (L. donovani [2]; [12]): 7e-07 M
EC50 (L. braziliensis; [11]): 9.3e-07 ± 4.5e-07 M
EC50 (L. braziliensis; [12]): 1.3e-06 M
EC50 (L. amazonensis; [11]): 2.1e-06 ± 1.6e-07 M
EC50 (L. amazonensis; [12]): 1.7e-06 M

CSc1ccc(OCc2ncc([N+](=O)[O-])n2C)cc1 [fexinidazole]
efficacy in patients (visceral leishmaniasis): failed to demonstrate efficacy

CCCCCCCCCCCCCCCCOP(=O)([O-])OCC[N+](C)(C)C [miltefosine]
potency variation between species ([1]; EC50 compared between the three species): up to 4 fold
Emax [1, 10]: 78 to 100%
potency against L. donovani relative to L. amazonensis, L. braziliensis, L. guyanensis, and L. chagasi (L. donovani [3]): approximately 20 times
EC50 (L. donovani [2]; [12]): 6e-07 M
sensitivity to miltefosine, L. aethiopica relative to L. major [4]: 14 fold
EC50 (L. braziliensis; [12]): 1.6e-06 M
EC50 (L. amazonensis; THP-1, variation across ten independent experiments, read-out: EC50): 9.7e-07 to 1.4e-05 M
EC50 (L. amazonensis; [12]): 2.3e-06 M

Cl.O[Si](CCCN1CCCCC1)(c1ccc(F)cc1)C1CCCCC1 (centres unmarked) [pFHHSiD]
normalized activity against two species [1]: > 90%

Bromocryptine
pEC50 M L. b (L. braziliensis; [9]): 4.41
pEC50 M L. a (L. amazonensis; [9]): 4.43
